Assays:
[1] = tested on: EpiAirway™ Cell Membrane (mucosal epithelial cell layer); experiment: Transepithelial electrical resistance (TER), EpiAirway in vitro epithelial tissue model; format: cell-based; conditions: for TER(x)/TER(159) +/− SEM*: mean values from multiple repeats
Description: One “kit” consists of 24 units.
A. Respiratory airway epithelial cells form tight junctions in vivo as well as in vitro, and thereby restrict the flow of solutes across the tissue. These junctions confer a transepithelial resistance of several hundred ohms×cm^2 in excised airway tissues. In the MatTek EpiAirway™ units, the transepithelial electrical resistance (TER) is reported by the manufacturer to be routinely around 1000 ohms×cm^2. […] The porous membrane-bottomed units without cells, conversely, provide only minimal transmembrane resistance (approximately 5-20 ohms×cm^2).
B. Accurate determinations of TER require that the electrodes of the ohmmeter be positioned over a significant surface area above and below the membrane, and that the distance of the electrodes from the membrane be reproducibly controlled. The method for TER determination recommended by MatTek and employed for all experiments herein employs an “EVOM”™ epithelial voltohmmeter and an “ENDOHM”™ tissue resistance measurement chamber from World Precision Instruments, Inc., Sarasota, Fla.
D. Determinations of TER are made with 1.5 mL of PBS in the chamber and 350 μL of PBS in the membrane-bottomed unit being measured. The top electrode is adjusted to a position just above the membrane of a unit containing no cells (but containing 350 μL of PBS) and then fixed to ensure reproducible positioning. The resistance of a cell-free unit is typically 5-20 ohms×cm^2 (“background resistance”).
G. The unit is gently blotted free of excess PBS on its exterior surface only before being placed into the chamber (containing a fresh 1.5 mL aliquot of PBS). An aliquot of 350 μL PBS is added to the unit before the top electrode is placed on the chamber and the TER is read on the EVOM meter.
I. The units are read in the following sequence: all sham-treated controls, followed by all formulation-treated samples, followed by a second TER reading of each of the sham-treated controls. All TER values are reported as a function of the surface area of the tissue.
TER was calculated as: TER=(R1−Rb)×A Where R1 is resistance of the insert with a membrane, Rb is the resistance of the blank insert, and A is the area of the membrane (0.6 cm^2). The effect of pharmaceutical formulations comprising intranasal delivery-enhancing agents, for example, permeabilizing peptides as measured by TER across the EpiAirway™ Cell Membrane (mucosal epithelial cell layer). Permeabilizing peptides are applied to the EpiAirway™ Cell Membrane at a concentration of 1.0 mM. A decrease in TER value relative to the control value (control=approximately 1000 ohms-cm^2; normalized to 100.) indicates a decrease in cell membrane resistance and an increase in mucosal epithelial cell permeability.
(§1) The formulation pH was fixed at 4.5.

[2] = tested on: EpiAirway™ Cell Membrane (mucosal epithelial cell layer); experiment: LDH assay (cytotoxicity), in vitro epithelial tissue model; format: cell-based
Protocol: Repeated freeze-thaw cycles are to be avoided.
The amount of cell death was assayed by measuring the loss of lactate dehydrogenase (LDH) from the cells using a CytoTox 96 Cytoxicity Assay Kit (Promega Corp., Madison, Wis.). Fifty microliters of sample was loaded into a 96-well assay plates. Fresh, cell-free culture medium was used as a blank. 50 μl of substrate solution was added to each well and the plates incubated for 30 minutes at room temperature in the dark. Following incubation, 50 μl of stop solution was added to each well and the plates read on an optical density plate reader at 490 nm.
as §1

[3] = MTT assay (cell viability), in vitro epithelial tissue model; format: cell-based; conditions: human, pH 5; galantamine lactate 40 mg/ml and PN159 at all concentrations tested (25, 50, 100 μM)
[4] = Chemical stability of PN159 in solution (stability indicating HPLC); format: physicochemical; conditions: pH 9 and/or elevated temperature, e.g., 40 to 50° C.
Protocol: The chemical stability of the PN159 was determined under therapeutically relevant storage conditions. A stability indicating HPLC method was employed. Solutions (50 mM) were stored at various pH (4.0, 7.3, and 9.0) and temperature (5° C., 25° C., 35° C., 40° C., and 50° C.) conditions. Samples at pH 4 contained 10 mM citrate buffer. Samples at pH 7.3 and 9.0 contained 10 mM phosphate buffer. Representative storage stability data (including the Arrhenius plot) are depicted in FIG. 6. […] For example, at 5° C. and pH 4.0 or pH7.3, there was essentially 100% recovery of PN159 for six month storage. […] The pH range of 4.0 to 7.3 and the temperature range of refrigerated to ambient are most relevant for intranasal formulations.

[5] = tested on: EpiAirway™ Cell Membrane (mucosal epithelial cell layer); experiment: Transepithelial electrical resistance (TER), EpiAirway in vitro epithelial tissue model; format: cell-based

CC(C)C[C@H](NC(=O)[C@H](C)NC(=O)[C@H](CCCCN)NC(=O)[C@H](CC(C)C)NC(=O)[C@H](C)NC(=O)[C@H](CC(C)C)NC(=O)[C@H](CCCCN)NC(=O)[C@H](CC(C)C)NC(=O)[C@H](C)NC(=O)[C@H](CC(C)C)NC(=O)[C@@H](N)CCCCN)C(=O)N[C@@H](CCCCN)C(=O)N[C@@H](C)C(=O)N[C@@H](C)C(=O)N[C@@H](CC(C)C)C(=O)N[C@@H](CCCCN)C(=O)N[C@@H](CC(C)C)C(=O)N[C@@H](C)C(N)=O [PN159]
TER reduction (in words) ([1]; Example 2, PTH formulation study, applied to apical side): Higher TER reduction was observed with increasing PN159 concentration | TER(x)/TER(159) +/− SEM* ([1]; Example 7, length changes, relative to PN159): 1.00 +/− 0.14 | TER(x)/TER(159) +/− SEM ([1]; Table 6, D-amino acid substitutions, relative to PN159): 1.00 +/− 0.14 | Relative TER Decrease ([1]; Table 8, amino acid substitutions, relative to PN159): 1.0 | TER(x)/TER(159) +/− SEM* ([1]; Table 9, hydrophobic faces, relative to PN159): 1.00 +/− 0.14 | cytotoxicity (LDH) ([2]; Example 2, PTH study, PN159 25-100 μM): no significant cytotoxicity | cytotoxicity as measured by LDH ([2]; in the presence of PN159 and galantamine lactate): low | viability [3]: > 80% | chemical stability (in words) [4]: rapid deterioration | TER (in words) ([5]; PN159 25, 50, 100 μM in the presence of 40 mg/ml galantamine lactate, pH 5.0): reduced TER | TER reduction ([5]; PN159 25, 50, 100 μM with 2 mg/ml PTH, pH 4.5): more than 80%
